Assay results taken from patent US20230278972A1, “SUBSTITUTED HALOALKYL SULFONANILIDE HERBICIDES” (FMC Corporation, priority 2020, published 2023).

Columns and labels:
Type in all cases: in vivo
kochia (Bassia scoparia) [1] = assay: Test A preemergence, kochia; conditions: Preemergence, 0 to 100 scale (0 no effect, 100 complete control)
Procedure, shortened: (§1)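 Postemergence ratings come from foliar sprays onto one- to two-leaf plants of 2 to 10 cm grown in loam/sand; preemergence ratings come from a directed spray onto the soil of newly seeded pots. Formulation was a surfactant-containing non-phytotoxic solvent blend.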

[2] = system: pigweed (Amaranthus retroflexus); assay: Test A preemergence, pigweed; conditions: 0 to 100 scale (0 no effect, 100 complete control)
Procedure, shortened: (§2)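 After sowing into a sand-amended loam, pots for the preemergence test were treated by spraying directly onto soil. In parallel, seedlings at the one- to two-leaf stage and 2 to 10 cm tall were treated postemergence with the identical surfactant-containing formulation.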

[3] = system: blackgrass (Alopecurus myosuroides); assay: Test A postemergence, blackgrass; conditions: Postemergence, 0 to 100 scale (0 no effect, 100 complete control); for Plant response rating, Blackgrass: 125 g ai/ha; for Blackgrass plant response rating: 500 g ai/ha, visual injury vs untreated controls after approx. 10 days
Procedure, shortened: as §1

[4] = system: Foxtail, Giant (giant foxtail, Setaria faberi); assay: Test A postemergence, Foxtail, Giant; conditions: Postemergence, 0 to 100 scale (0 no effect, 100 complete control); for Plant response rating, Foxtail, Giant: 125 g ai/ha; for Foxtail, Giant plant response rating: 500 g ai/ha, visual injury vs untreated controls after approx. 10 days
Procedure, shortened: as §1

[5] = system: wheat (Triticum aestivum); assay: Test A postemergence, wheat; conditions: Postemergence, 0 to 100 scale (0 no effect, 100 complete control); for Plant response rating, Wheat: 125 g ai/ha; for Wheat plant response rating: 500 g ai/ha, visual injury vs untreated controls after approx. 10 days
Procedure, shortened: as §2

[6] = system: barnyardgrass (Echinochloa crus-galli); assay: Test A preemergence, barnyardgrass; conditions: Preemergence, 0 to 100 scale (0 no effect, 100 complete control)
Procedure, shortened: as §1

[7] = system: ragweed (common ragweed, Ambrosia artemisiifolia); assay: Test A postemergence, ragweed; conditions: Postemergence, 0 to 100 scale (0 no effect, 100 complete control); for Plant response rating, Ragweed: 125 g ai/ha; for Ragweed plant response rating: 500 g ai/ha, visual injury vs untreated controls after approx. 10 days
Procedure, shortened: as §1

kochia (Bassia scoparia) [8] = assay: Test A postemergence, kochia; conditions: Postemergence, 0 to 100 scale (0 no effect, 100 complete control); for Plant response rating, Kochia: 125 g ai/ha; for Kochia plant response rating: 500 g ai/ha, visual injury vs untreated controls after approx. 10 days
Procedure, shortened: as §1

[9] = system: pigweed (Amaranthus retroflexus); assay: Test A postemergence, pigweed; conditions: Postemergence, 0 to 100 scale (0 no effect, 100 complete control); for Plant response rating, Pigweed: 125 g ai/ha; for Pigweed plant response rating: 500 g ai/ha, visual injury vs untreated controls after approx. 10 days
Procedure, shortened: as §1

[10] = system: Ryegrass, Italian (Italian ryegrass, Lolium multiflorum); assay: Test A postemergence, Ryegrass, Italian; conditions: Postemergence, 0 to 100 scale (0 no effect, 100 complete control); for Plant response rating, Ryegrass, Italian: 125 g ai/ha; for Ryegrass, Italian plant response rating: 500 g ai/ha, visual injury vs untreated controls after approx. 10 days
Procedure, shortened: as §1

[11] = system: Foxtail, Giant (giant foxtail, Setaria faberi); assay: Test A preemergence, Foxtail, Giant; conditions: Preemergence, 0 to 100 scale (0 no effect, 100 complete control)
Procedure, shortened: as §1

corn (Zea mays) = assay: Test A postemergence, corn; conditions: Postemergence, 0 to 100 scale (0 no effect, 100 complete control); for Plant response rating, Corn: 125 g ai/ha; for Corn plant response rating: 500 g ai/ha, visual injury vs untreated controls after approx. 10 days
Procedure, shortened: as §1

[12] = system: ragweed (common ragweed, Ambrosia artemisiifolia); assay: Test A preemergence, ragweed; conditions: Preemergence, 0 to 100 scale (0 no effect, 100 complete control)
Procedure, shortened: as §1

[13] = system: barnyardgrass (Echinochloa crus-galli); assay: Test A postemergence, barnyardgrass; conditions: Postemergence, 0 to 100 scale (0 no effect, 100 complete control); for Plant response rating, Barnyardgrass: 125 g ai/ha; for Barnyardgrass plant response rating: 500 g ai/ha, visual injury vs untreated controls after approx. 10 days
Procedure, shortened: as §2

[14] = system: galium (catchweed bedstraw, Galium aparine); assay: Test A postemergence, galium; conditions: Postemergence, 0 to 100 scale (0 no effect, 100 complete control); for Plant response rating, Galium: 125 g ai/ha; for Galium plant response rating: 500 g ai/ha, visual injury vs untreated controls after approx. 10 days
Procedure, shortened: as §2

[15] = system: Ryegrass, Italian (Italian ryegrass, Lolium multiflorum); assay: Test A preemergence, Ryegrass, Italian; conditions: Preemergence, 0 to 100 scale (0 no effect, 100 complete control)
Procedure, shortened: as §1

[16] = 125 g ai/ha, visual injury, approx. 10 days

SMILES | Plant response rating, Kochia (kochia (Bassia scoparia) [1]; [16]) | Plant response rating, Kochia (kochia (Bassia scoparia) [1]; 500 g ai/ha) | Plant response rating, Pigweed [2, 16] | Plant response rating, Pigweed ([2]; 500 g ai/ha) | Plant response rating, Blackgrass [3] | Blackgrass plant response rating [3] | Plant response rating, Foxtail, Giant [4] | Foxtail, Giant plant response rating [4] | Plant response rating, Wheat [5] | Wheat plant response rating [5] | Plant response rating, Barnyardgrass [6, 16] | Plant response rating, Barnyardgrass ([6]; 500 g ai/ha) | Plant response rating, Ragweed [7] | Ragweed plant response rating [7] | Plant response rating, Kochia (kochia (Bassia scoparia) [8]) | Kochia plant response rating (kochia (Bassia scoparia) [8]) | Plant response rating, Pigweed [9] | Pigweed plant response rating [9] | Plant response rating, Ryegrass, Italian [10] | Ryegrass, Italian plant response rating [10] | other results
CC(=O)OCN(c1cc(C2=NOC3(CCCC3)C2)c(C)cc1C)S(=O)(=O)C(F)(F)F [Compound 218] | 30 | 60 | 80 | 90 | 10 | 40 | 50 | 90 | 10 | 70 | 100 | 100 | 40 | 80 | 60 | 80 | 50 | 80 | 30 | 80 | Plant response rating, Foxtail, Giant [11, 16]: 100; Plant response rating, Foxtail, Giant ([11]; 500 g ai/ha): 100; Plant response rating, Corn (corn (Zea mays)): 10; Corn plant response rating (corn (Zea mays)): 70; Plant response rating, Ragweed [12, 16]: 20; Plant response rating, Ragweed ([12]; 500 g ai/ha): 90; Plant response rating, Barnyardgrass [13]: 80; Barnyardgrass plant response rating [13]: 90; Plant response rating, Galium [14]: 60; Galium plant response rating [14]: 80; Plant response rating, Ryegrass, Italian [15, 16]: 100; Plant response rating, Ryegrass, Italian ([15]; 500 g ai/ha): 100
CSC(=O)N(c1cc(C2=NOC3(CCCC3)C2)c(C)cc1C)S(=O)(=O)C(F)(F)F [Compound 219] | 20 | 40 | 40 | 60 | 0 | 0 | 0 | 20 | 0 | 0 | 0 | 100 | 20 | 50 | 30 | 60 | 40 | 70 | 20 | 50 | Plant response rating, Foxtail, Giant [11, 16]: 50; Plant response rating, Foxtail, Giant ([11]; 500 g ai/ha): 90; Plant response rating, Corn (corn (Zea mays)): 0; Corn plant response rating (corn (Zea mays)): 0; Plant response rating, Ragweed [12, 16]: 0; Plant response rating, Ragweed ([12]; 500 g ai/ha): 0; Plant response rating, Barnyardgrass [13]: 0; Barnyardgrass plant response rating [13]: 70; Plant response rating, Galium [14]: 50; Galium plant response rating [14]: 70; Plant response rating, Ryegrass, Italian [15, 16]: 50; Plant response rating, Ryegrass, Italian ([15]; 500 g ai/ha): 60
CC(=O)N(c1cc(C2=NOC3(CCCC3)C2)c(C)cc1C)S(=O)(=O)C(F)(F)F [Compound 220] | 20 | 70 | 70 | 100 | 0 | 30 | 0 | 50 | 20 | 60 | 100 | 100 | 0 | 40 | 20 | 60 | 0 | 70 | 0 | 20 | Plant response rating, Foxtail, Giant [11, 16]: 100; Plant response rating, Foxtail, Giant ([11]; 500 g ai/ha): 100; Plant response rating, Corn (corn (Zea mays)): 0; Corn plant response rating (corn (Zea mays)): 30; Plant response rating, Ragweed [12, 16]: 30; Plant response rating, Ragweed ([12]; 500 g ai/ha): 60; Plant response rating, Barnyardgrass [13]: 20; Barnyardgrass plant response rating [13]: 70; Plant response rating, Galium [14]: 60; Galium plant response rating [14]: 80; Plant response rating, Ryegrass, Italian [15, 16]: 100; Plant response rating, Ryegrass, Italian ([15]; 500 g ai/ha): 100
Cc1cc(Cl)c(NS(=O)(=O)C(F)(F)F)cc1C1=NOC2(CCCCC2)C1 [Compound 221] | 70 | 90 | 60 | 100 | 10 | 30 | 0 | 90 | 20 | 70 | 100 | 100 | 70 | 90 | 60 | 70 | 20 | 80 | 0 | 60 | Plant response rating, Foxtail, Giant [11, 16]: 100; Plant response rating, Foxtail, Giant ([11]; 500 g ai/ha): 100; Plant response rating, Corn (corn (Zea mays)): 10; Corn plant response rating (corn (Zea mays)): 40; Plant response rating, Ragweed [12, 16]: 90; Plant response rating, Ragweed ([12]; 500 g ai/ha): 90; Plant response rating, Barnyardgrass [13]: 30; Barnyardgrass plant response rating [13]: 80; Plant response rating, Galium [14]: 80; Galium plant response rating [14]: 100; Plant response rating, Ryegrass, Italian [15, 16]: 100; Plant response rating, Ryegrass, Italian ([15]; 500 g ai/ha): 100
